Data: patent US20210275503A1, “TARGETING HOMOLOGOUS RECOMBINATION: A NEW SYTHETIC LETHAL THERAPEUTIC PARADIGM” (Cyteir Therapeutics, Inc., priority 2020, published 2021)
Entries after “also recorded” stand apart in the source; their conditions may differ.

Columns and labels:
[1] = Compound 67A pharmacokinetics in human subjects; assay type: in vivo; conditions: for Cmax / Tmax / AUC(0-t): in vivo, human subjects
Description: Compound 67A pharmacokinetics were analyzed in human subjects (Table 1, FIGS. 2A-2B)

[2] = system: advanced hematologic and solid tumors; assay: Phase 1/2 monotherapy: clinical efficacy (Lugano, RECIST v1.1); assay type: in vivo, human; conditions: for time on treatment: treatment ongoing
Description: (§1) Compound 67A was analyzed in hematological and solid tumors. Dose escalation studies comprised of subjects with B-cell non-Hodgkin's lymphoma, chronic lymphocytic leukemia, multiple myeloma, breast cancer, head and neck cancer, soft tissue sarcoma, and ovarian cancer. Backfill studies comprised of subjects with diffuse large b-cell lymphoma (DLBCL), B-cell malignancies, pancreatic cancer, small-cell lung cancer, and HPV+HNSCC. Dosage for the Phase 1/2 monotherapy study is seen in FIG. 4.
Subjects with advanced hematologic and solid tumors were treated with continuous 28-day cycles of increasing doses of Compound 67A with an accelerated titration and 3+3 trial design. As of Dec. […] Six subjects (26.1%) experienced a Compound 67A-related adverse event with only Grade 1/2 nausea (n=3, 13%) and constipation (n=2, 8.7%) occurring in >1 subject. There were no reported Compound 67A-related myelosuppression, serious adverse events, study discontinuation, or deaths.
Ten subjects were response evaluable prior to the data cut off.

[3] = Food effect pharmacokinetics, 90 mg QD, cycle 1 day 1; assay type: in vivo, human; conditions: for Cmax / AUC(0-t) / Tmax: human, in vivo, oral, 90 mg, 90 mg QD, cycle 1 day 1; for Cmax / AUC(0-t): Mean ± SD; for AUC(0-t): read-out: AUC0-24; for Tmax: median (min, max)
Description: The food effect was evaluated with a 90 mg QD dosage during cycle 1 at day 1 (Table 2; FIG. 3).

[4] = Phase 1/2 monotherapy: safety and tolerability; assay type: in vivo; conditions: 23 subjects
Excerpt: as §1, with “Dose” for “Compound 67A was analyzed in hematological and solid tumors. Dose”

[5] = subject with follicular lymphoma, 45 mg BID
[6] = subject with myxofibrosarcoma, 45 mg BID
[7] = subject with pancreatic cancer, 45 mg BID

CC(C)OC(=O)Nc1ccc(-c2cnc([C@H]3CC[C@H](NC(=O)OC(C)C)CC3)s2)c(S(=O)(=O)NC(C)(C)C)c1 [Compound 67A]
Cmax ([1]; 15 mg BID): 338 ng/mL
Tmax ([1]; 15 mg BID): 2 h
AUC(0-t) ([1]; 15 mg BID, AUC0-12): 2630 ng·h/mL
Cmax ([1]; 20 mg BID): 670 ng/mL
Tmax ([1]; 20 mg BID): 2 h
AUC(0-t) ([1]; 20 mg BID, AUC0-12): 5940 ng·h/mL
Cmax ([1]; 30 mg BID): 1210 ng/mL
Tmax ([1]; 30 mg BID): 2 h
AUC(0-t) ([1]; 30 mg BID, AUC0-12): 10200 ng·h/mL
AUC(0-t) ([1]; 45 mg BID, AUC0-12, mean ± SD, n = 2): 13500 ± 8270 ng·h/mL
Cmax ([1]; 45 mg BID, mean ± SD): 1430 ± 362 ng/mL
Tmax ([1]; 45 mg BID, median (min, max)): 1.5 h
AUC(0-t) ([1]; 90 mg QD, AUC0-8, mean ± SD): 11500 ± 5570 ng·h/mL
Cmax ([1]; 90 mg QD, mean ± SD): 1740 ± 930 ng/mL
Tmax ([1]; 90 mg QD, median (min, max)): 2.5 h
AUC(0-t) ([1]; 130 mg QD, AUC0-8, mean ± SD): 12800 ± 3980 ng·h/mL
Cmax ([1]; 130 mg QD, mean ± SD): 1800 ± 438 ng/mL
Tmax ([1]; 130 mg QD, median (min, max)): 2 h
AUC(0-t) ([1]; 200 mg QD, AUC0-8, mean ± SD): 20600 ± 12200 ng·h/mL
Cmax ([1]; 200 mg QD, mean ± SD): 3460 ± 2470 ng/mL
Tmax ([1]; 200 mg QD, median (min, max)): 3.75 h
systemic exposure versus dose ([1]; preliminary pharmacokinetic analyses, Phase 1/2 subjects): dose proportional systemic exposure
metabolic activity in non-target lesions ([2]; subject with DLBCL): significant reduction in metabolic activity in non-target lesions
target lesions ([2]; subject with DLBCL): near complete resolution of target lesions
response ([2]; subject with DLBCL, 45 mg BID): partial responses; also recorded: confirmed partial response
tumor change ([2]; subject with DLBCL, 45 mg BID, Lugano): −74%
time on treatment ([2]; subject with DLBCL, 45 mg BID): ≥ 126 days
decrease ([2]; subject with follicular lymphoma (45 mg BID), C3D1): 42%
decrease ([2]; subject with follicular lymphoma (45 mg BID), C5D1): 47%
response ([2]; subject with follicular lymphoma (45 mg BID, escalated to 130 mg QD at C5D1), end of the sixth month): unconfirmed partial response
response ([2]; subject with follicular lymphoma, 30 mg BID): stable disease with evidence of clinical benefit
decrease ([2]; subject with follicular lymphoma, 30 mg BID, C3D1): 27%
duration of stable disease [2, 5]: ≥ 99 days
tumor change [2, 5]: −42%
response ([2]; subject with follicular lymphoma, 45 mg BID, at data cut off): stable disease with tumor shrinkage
overall decrease ([2]; subject with follicular lymphoma, C7D1, after escalation to 130 mg QD at C5D1): 67%
response ([2]; subject with leiomyosarcoma): stable disease
change by RECIST ([2]; subject with leiomyosarcoma, six months): 0%
decrease ([2]; subject with myxofibrosarcoma): 30%
response [2, 6]: partial responses; also recorded: unconfirmed partial response
tumor change ([2]; subject with myxofibrosarcoma, 45 mg BID, RECIST v1.1): −30%
time on treatment [2, 6]: ≥ 250 days
response ([2]; subject with ovarian cancer): stable disease
decrease by RECIST v1.1 ([2]; subject with ovarian cancer, two months): 29%
decrease by RECIST ([2]; subject with pancreatic cancer): 19%
drop in CA19-9 ([2]; subject with pancreatic cancer): ≥ 70%
duration of stable disease [2, 7]: 111 days
response [2, 7]: stable disease with tumor shrinkage; also recorded: stable disease with evidence of clinical benefit
tumor change [2, 7]: −19%
impact of food on drug exposure ([3]; 90 mg QD food-effect cohort): minimal impact of food on drug exposure
Cmax ([3]; Fasted Patients (n = 3)): 574 ± 304 ng/mL
AUC(0-t) ([3]; Fasted Patients (n = 3)): 5950 ± 2900 ng·h/mL
Tmax ([3]; Fasted Patients (n = 3)): 4 h
Cmax ([3]; Fed Patients (n = 3)): 458 ± 129 ng/mL
AUC(0-t) ([3]; Fed Patients (n = 3)): 6430 ± 1840 ng·h/mL
Tmax ([3]; Fed Patients (n = 3)): 8 h
Compound 67A-related myelosuppression, serious adverse events, study discontinuation, or deaths [4]: no reported
dose-limiting toxicity ([4]; 6 cohorts (15, 20, 30, 45 mg BID; 90, 130 mg QD), 28-day cycles): No subjects experienced a dose-limiting toxicity
Grade 1/2 constipation (related adverse event) ([4]; n=2): 8.7%
Grade 1/2 nausea (related adverse event) ([4]; n=3): 13%
subjects with a Compound 67A-related adverse event ([4]; six subjects): 26.1%
